From patent US5686424A, “2-oxoethyl derivatives as immunosuppressants” (Miles Inc., priority 1995, dated 1997)
Where a name gives a salt, the structure may show the parent alone.

Legend:
FKBP = FKBP (Homo sapiens, UniProt P62942); assay: PPIase Inhibition Assay; type: biochemical; details: concentration of inhibitor required for 50% inhibition of enzyme activity; FKBP, substrate Succinyl-Ala-Phe-Pro-Phe-para-nitroanilide; TABLE I
In short: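 Rates from p-nitroaniline release at 390 nm over 90 sec, fitted first-order, were converted to % activity remaining relative to uncatalyzed and uninhibited rates, with IC50 from linear regression of V-/V+ against inhibitor level. FKBP acted on Suc-Ala-Phe-Pro-Phe-pNA with excess chymotrypsin, HEPES pH 7.8, cold buffer.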

human T-cells = assay: Suppression of Human T-Cell Proliferation Assay (PHA-stimulated, [3H]-thymidine incorporation); type: cell-based; details: concentration inhibiting [3H]-thymidine incorporation of PHA-stimulated T-cells by 50%, 72 hours; TABLE 2; read-out: IC50
In short: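 Read-out is scintillation counting of [3H]-thymidine pulsed for the last 6 h of a 72 h, 37° C culture. Human T-cells, isolated from LeukoPaks by Lymphoprep and sheep-erythrocyte rosetting, were PHA-M activated (40 μg/ml stock) with compound dilutions added in duplicate wells.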

NF-AT = NF-AT Inhibition Assay Directed β-Galactosidase Expression in FGL-5 cells; type: cell-based; details: 50% inhibition of NF-AT directed β-galactosidase activity in FGL-5 cells stimulated with phorbol dibutyrate and ionomycin; TABLE 3
In short: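 FGL-5 Jurkat cells (3 million cells/ml) carry NF-AT-site-driven lacZ. They were stimulated with phorbol dibutyrate plus ionomycin and incubated with compound 16-18 h at 37 °C, in duplicate wells with matched ethanol or DMSO vehicle controls. β-Galactosidase was read as fluorescence from 4-methylumbelliferyl-β-D-galactoside cleavage, giving percent inhibition.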

Chain of FKBP (P62942 whole entry): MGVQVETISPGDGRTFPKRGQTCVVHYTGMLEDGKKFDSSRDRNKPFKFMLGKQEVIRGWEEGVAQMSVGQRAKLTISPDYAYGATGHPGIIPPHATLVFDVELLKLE

Compound | IC50 (FKBP) [µM] | IC50 (NF-AT) [µM] | IC50 (human T-cells) [µM]
COc1cc(C(=O)CN2CCCC[C@H]2C(=O)NCCc2ccc(S(N)(=O)=O)cc2)cc(OC)c1OC [Example 149, L-Homoproline, 1-[2-(3,4,5-Trimethoxyphenyl)-2-Oxoethyl] 2-(4-Sulfamoylphenyl)ethylamide] | > 5 | > 15 | > 15
COc1cc(C(=O)CN2CCCC[C@H]2C(=O)N[C@@H](C)c2ccccc2)cc(OC)c1OC [Example 150, L-Homoproline, 1-[2-(3,4,5-Trimethoxyphenyl)-2-Oxoethyl] (S)-α-methylbenzylamide Hydrochloride] | > 5 | > 15 | > 15
COc1cc(C(=O)CN2CCCC[C@H]2C(=O)N[C@H](/C=C/c2ccccc2)CC(C)C)cc(OC)c1OC [Example 151, L-Homoproline, 1-[2-(3,4,5-Trimethoxyphenyl)-2-Oxoethyl] (1-(S)-[2'-(S)-methylpropyl]-3-phenylprop-2-E-enyl)-amide] | > 5 | > 15 | 4
COc1cc(C(=O)CN2CCCC[C@H]2C(=O)N[C@@H](CCc2ccccc2)CC(C)C)cc(OC)c1OC [Example 152, L-Homoproline, 1-[2-(3,4,5-Trimethoxyphenyl)-2-Oxoethyl] (1-(S)-[2'-(S)-methylpropyl]-3-phenylpropyl)-amide] | > 5 | > 15 | 8
COc1cc(C(=O)CN2CCC[C@H]2C(=O)NCCc2ccc(NC(C)=O)cc2)cc(OC)c1OC [Example 154, L-Proline, 1-[2-(3,4,5-Trimethoxyphenyl)-2-Oxoethyl] 2-(4-(N-Acetyl)aminophenyl)ethylamide] | > 5 | > 15 | 13
COc1cc(C(=O)CN2CCC[C@H]2C(=O)NCCc2ccc(NC(=O)c3ccccc3)cc2)cc(OC)c1OC [Example 155, L-Proline, 1-[2-(3,4,5-Trimethoxyphenyl)-2-Oxoethyl] 2-(4-(N-Benzoyl)aminophenyl)ethylamide] | > 5 | > 15 | 9
C=CCOC(=O)Nc1ccc(CCNC(=O)[C@@H]2CCCN2CC(=O)c2cc(OC)c(OC)c(OC)c2)cc1 [Example 156, L-Proline, 1-[2-(3,4,5-Trimethoxyphenyl)-2-Oxoethyl] 2-(4-(N-carboalloxy)aminophenyl)ethylamide] | > 5 | > 15 | 6
COc1cc(C(=O)CN2CCC[C@H]2C(=O)NCCc2ccc(NC(=O)OCc3ccccc3)cc2)cc(OC)c1OC [Example 157, L-Proline, 1-[2-(3,4,5-Trimethoxyphenyl)-2-Oxoethyl] 2-(4-(N-Carbobenzyloxy)aminophenyl)ethylamide] | > 5 | > 15 | 5
C=CCOC(=O)Nc1ccc(CCCOC(=O)[C@@H]2CCCCN2CC(=O)c2cc(OC)c(OC)c(OC)c2)cc1 [Example 159, L-Homoproline, 1-[2-(3,4,5-Trimethoxyphenyl)-2-Oxoethyl] 3-(4-(N-Carboallyloxy)aminophenyl)propyl Ester Hydrochloride] | > 5 | 3 | 10
C=CCOC(=O)Nc1ccc(CCCOC(=O)[C@@H]2CCCN2CC(=O)C23CC4CC(CC(C4)C2)C3)cc1 [Example 160, L-Proline, 1-[2-Adamantan-1-yl-2-Oxoethyl] 3-(4-(N-Carboallyloxy)aminophenyl)propyl Ester Hydrochloride] | > 5 | > 15 | > 15
C=CCOC(=O)Nc1ccc(CCCOC(=O)[C@@H]2CCCCN2CC(=O)C23CC4CC(CC(C4)C2)C3)cc1 [Example 161, L-Homoproline, 1-[2-Adamant-1-yl-2-Oxoethyl] 3-(4-(N-Carboallyloxy)aminophenyl)propyl Ester Hydrochloride] | > 5 | > 15 | 9

Second part, led by results:

IC50 (FKBP) [µM] | IC50 (NF-AT) [µM] | Compound | IC50 (human T-cells) [µM]
> 5 | > 33 | COc1cc(C(=O)CN2CCC[C@H]2C(=O)N[C@@H](C)c2ccccc2)cc(OC)c1OC [Example 136, L-Proline, 1-[2-(3,4,5-Trimethoxyphenyl)-2-Oxoethyl] (S)-α-methylbenzylamide Hydrochloride] | 7
> 5 | > 33 | COc1cc(C(=O)CN2CCC[C@H]2C(=O)N[C@H](C)c2ccccc2)cc(OC)c1OC [Example 137, L-Proline, 1-[2-(3,4,5-Trimethoxyphenyl)-2-Oxoethyl] (R)-α-methylbenzylamide Hydrochloride] | 16
> 5 | > 33 | COc1cc(C(=O)CN2CCC[C@H]2C(=O)NC(C)CCc2ccccc2)cc(OC)c1OC (stereo partly drawn) [Example 138, L-Proline, 1-[2-(3,4,5-Trimethoxyphenyl)-2-Oxoethyl] 1-methyl-3-phenylpropylamide Hydrochloride] | 18
> 5 | > 33 | COc1cc(C(=O)CN2CCC[C@H]2C(=O)NCC23CC4CC(CC(C4)C2)C3)cc(OC)c1OC [Example 139, L-Proline, 1-[2-(3,4,5-Trimethoxyphenyl)-2-Oxoethyl] Adamant-1-ylmethylamide Hydrochloride] | 4
> 5 | > 33 | COc1cc(C(=O)CN2CCC[C@H]2C(=O)N[C@H](C)c2cccc3ccccc23)cc(OC)c1OC [Example 140, L-Proline, 1-[2-(3,4,5-Trimethoxyphenyl)-2-Oxoethyl] 1-(R)-(1-naphthyl)ethylamide Hydrochloride] | 10
> 5 | > 33 | COc1cc(C(=O)CN2CCC[C@H]2C(=O)NCC2CCCCC2)cc(OC)c1OC [Example 141, L-Proline, 1-[2-(3,4,5-Trimethoxylphenyl)-2-Oxoethyl] Cyclohexylmethylamide] | 7
> 5 | > 33 | COc1cc(C(=O)CN2CCC[C@H]2C(=O)NC(c2ccccc2)c2ccccc2)cc(OC)c1OC [Example 142, L-Proline, 1-[2-(3,4,5-Trimethoxyphenyl)-2-Oxoethyl] Diphenylmethylamide Hydrochloride] | 12
> 5 | > 33 | COc1cc(C(=O)CN2CCC[C@H]2C(=O)NC(C)(C)C)cc(OC)c1OC [Example 143, L-Proline, 1-[2-(3,4,5-Trimethoxyphenyl)-2-Oxoethyl] tert-Butylamide Hydrochloride] | 3
> 5 | > 33 | COc1cc(C(=O)CN2CCC[C@H]2C(=O)NC(Cc2ccccc2)c2ccccc2)cc(OC)c1OC (stereo partly drawn) [Example 144, L-Proline, 1-[2-(3,4,5-Trimethoxyphenyl)-2-Oxoethyl] 1,2-DiphenylethylamideHydrochloride] | 19
> 5 | > 33 | COc1cc(C(=O)CN2CCC[C@H]2C(=O)NC2CCCCC2)cc(OC)c1OC [Example 145, L-Proline, 1-[2-(3,4,5-Trimethoxyphenyl)-2-Oxoethyl] Cyclohexyl amide Hydrochloride] | 4
> 5 | > 15 | COc1cc(C(=O)CN2CCCC[C@H]2C(=O)NCc2ccccc2)cc(OC)c1OC [Example 146, L-Homoproline, 1-[2-(3,4,5-Trimethoxyphenyl)-2-Oxoethyl] Benzylamide Hydrochloride] | > 15
> 5 | > 15 | COc1cc(C(=O)CN2CCCC[C@H]2C(=O)NCC23CC4CC(CC(C4)C2)C3)cc(OC)c1OC [Example 147, L-Homoproline, 1-[2-(3,4,5-Trimethoxyphenyl)-2-Oxoethyl] Adamant-1-ylmethylamide Hydrochloride] | 8
> 5 | > 15 | COc1cc(C(=O)CN2CCCC[C@H]2C(=O)NCC2CCCO2)cc(OC)c1OC (stereo partly drawn) [Example 148, L-Homoproline, 1-[2-(3,4,5-Trimethoxyphenyl)-2-Oxoethyl] tetrahydrofurfurylamide] | > 15
